The source made the active and inactive calls. The calls are words filed in the database; no cut-off is given here.
Experiments:
A-375 [1] = assay: Cytotoxicity against human A-375 cells assessed as cell viability at 0.25 to 16 uM incubated for 4 hrs by CCK-8 assay; assay type: functional; conditions: dose 0.25-16 µM
A-375 [2] = assay: Induction of ROS generation in human A-375 cells assessed as increase fluorescence intensity at 10 uM incubated with compound for 24 hrs by DCFH-DA staining based analysis; assay type: functional, cell-based
A-375 [3] = assay: Induction of apoptosis in human A-375 cells assessed as viable cells at 6 uM incubated for 24 hrs under normoxia condition by Annexin V-FITC staining based flow cytometry analysis; assay type: functional; conditions: read-out: Activity
[4] = Retention time of the compound by HPLC-MASS analysis; assay type: physicochemical
A-375 [5] = assay: Antitumor activity against human A-375 cells assessed as cell viability incubated for 4 hrs under hypoxia condition by MTT assay; assay type: functional, cell-based; conditions: A-375, 4 h
A-375 [6] = assay: Cytotoxicity against human A-375 cells assessed as cell viability at upto 100 uM preincubated with compound for 4 hrs followed by light irradiation for 30 mins and measured after 24 hrs under hypoxic condition by CCK-8 assay; assay type: functional, cell-based; conditions: time 28.5 hrs
A-375 [7] = assay: Induction of apoptosis in human A-375 cells assessed as necrotic cells at 2 uM incubated for 24 hrs under hypoxia condition by Annexin V-FITC staining based flow cytometry analysis; assay type: functional
A-375 [8] = assay: Induction of apoptosis in human A-375 cells assessed as viable cells at 4 uM incubated for 24 hrs under hypoxia condition by Annexin V-FITC staining based flow cytometry analysis; assay type: functional; conditions: read-out: Activity
A-375 [9] = assay: Induction of apoptosis in human A-375 cells assessed as early apoptotic cells at 4 uM incubated for 24 hrs under normoxia condition by Annexin V-FITC staining based flow cytometry analysis; assay type: functional
A-375 [10] = assay: Cytotoxicity against human A-375 cells assessed as cell viability at 100 uM preincubated with compound for 4 hrs followed by light irradiation for 30 mins and measured after 24 hrs by CCK-8 assay; assay type: functional, cell-based; conditions: time 28.5 hrs
A-375 [11] = assay: Cytotoxicity against human A-375 cells assessed as cell viability at upto 100 uM incubated for 4 hrs under hypoxic condition by CCK-8 assay; assay type: functional, cell-based
A-375 [12] = assay: Induction of apoptosis in human A-375 cells assessed as early apoptotic cells at 2 uM incubated for 24 hrs under hypoxia condition by Annexin V-FITC staining based flow cytometry analysis; assay type: functional
A-375 [13] = assay: Induction of apoptosis in human A-375 cells assessed as late apoptotic cells at 6 uM incubated for 24 hrs under normoxia condition by Annexin V-FITC staining based flow cytometry analysis; assay type: functional
A-375 [14] = assay: Induction of apoptosis in human A-375 cells assessed as viable cells at 2 uM incubated for 24 hrs under hypoxia condition by Annexin V-FITC staining based flow cytometry analysis; assay type: functional; conditions: read-out: Activity
A-375 [15] = assay: Induction of apoptosis in human A-375 cells assessed as necrotic cells at 6 uM incubated for 24 hrs under normoxia condition by Annexin V-FITC staining based flow cytometry analysis; assay type: functional
A-375 [16] = assay: Induction of apoptosis in human A-375 cells assessed as necrotic cells at 6 uM incubated for 24 hrs under hypoxia condition by Annexin V-FITC staining based flow cytometry analysis; assay type: functional
[17] = Photostability of compound in PBS buffer at pH 7.4 at 10 uM under 20 W/cm2 white LED light irradiation measured upto 10 mins by absorption based assay; assay type: physicochemical; conditions: pH 7.4, 10 min
A-375 [18] = assay: Induction of apoptosis in human A-375 cells assessed as late apoptotic cells at 2 uM incubated for 24 hrs under normoxia condition by Annexin V-FITC staining based flow cytometry analysis; assay type: functional
A-375 [19] = assay: Induction of apoptosis in human A-375 cells assessed as early apoptotic cells at 2 uM incubated for 24 hrs under normoxia condition by Annexin V-FITC staining based flow cytometry analysis; assay type: functional
A-375 [20] = assay: Induction of apoptosis in human A-375 cells assessed as necrotic cells at 4 uM incubated for 24 hrs under hypoxia condition by Annexin V-FITC staining based flow cytometry analysis; assay type: functional
A-375 [21] = assay: Induction of apoptosis in human A-375 cells assessed as late apoptotic cells at 4 uM incubated for 24 hrs under hypoxia condition by Annexin V-FITC staining based flow cytometry analysis; assay type: functional
[22] = Selectivity index, ratio of IC50 for antitumor activity against human A-375 cells assessed as cell viability incubated for 4 hrs under hypoxic condition by MTT assay to IC50 for antitumor activity against human A-375 cells assessed as cell viability incubated for 4 hrs under normoxic condition by MTT assay; assay type: functional
[23] = Photostability of compound in PBS buffer at pH 7.4 at 10 uM under 20 W/cm2 white LED light irradiation measured for 60 mins by absorption based assay; assay type: physicochemical; conditions: pH 7.4, 1 h
A-375 [24] = assay: Cytotoxicity against human A-375 cells assessed as cell viability at 100 uM incubated for 4 hrs by CCK-8 assay; assay type: functional; conditions: read-out: Activity
[25] = Cytotoxicity against human HUVEC cells assessed as cell viability at upto 100 uM incubated for 4 hrs by CCK-8 assay; assay type: toxicity, cell-based; conditions: read-out: Activity
[26] = Induction of singlet oxygen quantum yield under irradiation with 590 nm LED light by DPBF based assay; assay type: functional
A-375 [27] = assay: Induction of apoptosis in human A-375 cells assessed as early apoptotic cells at 6 uM incubated for 24 hrs under hypoxia condition by Annexin V-FITC staining based flow cytometry analysis; assay type: functional
A-375 [28] = assay: Induction of apoptosis in human A-375 cells assessed as necrotic cells at 4 uM incubated for 24 hrs under normoxia condition by Annexin V-FITC staining based flow cytometry analysis; assay type: functional
A-375 [29] = assay: Antitumor activity against human A-375 cells xenografted in male BALB/c mouse assessed as tumor growth inhibition at 2.9 mg/ml, ip measured for 60 mins with light irradiation; assay type: functional; conditions: A-375, light or radiation study, 1 h, read-out: TGI
A-375 [30] = assay: Induction of ROS generation in human A-375 cells assessed as increase in green fluorescence at 10 uM preincubated with compound for 24 hrs followed by light irradiation for 30 mins and measured after 30 mins by DCFH-DA staining based fluorescence microscopic analysis; assay type: functional, cell-based; conditions: time 25.0 hrs
A-375 [31] = assay: Induction of apoptosis in human A-375 cells assessed as viable cells at 6 uM incubated for 24 hrs under hypoxia condition by Annexin V-FITC staining based flow cytometry analysis; assay type: functional; conditions: read-out: Activity
A-375 [32] = assay: Induction of apoptosis in human A-375 cells assessed as early apoptotic cells at 4 uM incubated for 24 hrs under hypoxia condition by Annexin V-FITC staining based flow cytometry analysis; assay type: functional
A-375 [33] = assay: Induction of apoptosis in human A-375 cells assessed as necrotic cells at 2 uM incubated for 24 hrs under normoxia condition by Annexin V-FITC staining based flow cytometry analysis; assay type: functional
A-375 [34] = assay: Induction of apoptosis in human A-375 cells assessed as viable cells at 4 uM incubated for 24 hrs under normoxia condition by Annexin V-FITC staining based flow cytometry analysis; assay type: functional; conditions: read-out: Activity
A-375 [35] = assay: Induction of apoptosis in human A-375 cells assessed as late apoptotic cells at 2 uM incubated for 24 hrs under hypoxia condition by Annexin V-FITC staining based flow cytometry analysis; assay type: functional
A-375 [36] = assay: Induction of apoptosis in human A-375 cells assessed as late apoptotic cells at 4 uM incubated for 24 hrs under normoxia condition by Annexin V-FITC staining based flow cytometry analysis; assay type: functional
A-375 [37] = assay: Antitumor activity against human A-375 cells assessed as cell viability preincubated with compound for 4 hrs followed by light irradiation for 30 mins and measured after 24 hrs under hypoxic condition by MTT assay; assay type: functional, cell-based; conditions: A-375, light or radiation study
A-375 [38] = assay: Antitumor activity against human A-375 cells assessed as cell viability preincubated with compound for 4 hrs followed by light irradiation for 30 mins and measured after 24 hrs under normoxic condition by MTT assay; assay type: functional, cell-based; conditions: A-375, light or radiation study
A-375 [39] = assay: Induction of apoptosis in human A-375 cells assessed as viable cells at 2 uM incubated for 24 hrs under normoxia condition by Annexin V-FITC staining based flow cytometry analysis; assay type: functional; conditions: read-out: Activity
A-375 [40] = assay: Induction of apoptosis in human A-375 cells assessed as late apoptotic cells at 6 uM incubated for 24 hrs under hypoxia condition by Annexin V-FITC staining based flow cytometry analysis; assay type: functional
A-375 [41] = assay: Antitumor activity against human A-375 cells assessed as cell viability incubated for 4 hrs under normoxic condition by MTT assay; assay type: functional, cell-based; conditions: A-375, 4 h
A-375 [42] = assay: Induction of apoptosis in human A-375 cells assessed as early apoptotic cells at 6 uM incubated for 24 hrs under normoxia condition by Annexin V-FITC staining based flow cytometry analysis; assay type: functional
[43] = Toxicity in BALB/c mouse assessed change in body weight at 2.9 mg/ml, ip measured for 60 mins with light irradiation; assay type: organism-based; conditions: in vivo, 1 h
A-375 [44] = assay: Cytotoxicity against human A-375 cells assessed as cell viability at >1 uM preincubated with compound for 4 hrs followed by light irradiation for 30 mins and measured after 24 hrs by CCK-8 assay; assay type: functional, cell-based; conditions: time 28.5 hrs
A-375 [45] = assay: Anticancer activity against human A-375 cells measured at 12 to 30 hrs under hypoxic condition; assay type: functional, cell-based; conditions: time 12-30 hrs
[46] = Toxicity in BALB/c mouse assessed at 2.9 mg/ml, ip assessed as morphological changes in tumor measured for 60 mins with light irradiation by H and E staining based analysis; assay type: organism-based; conditions: in vivo, 1 h
A-375 [47] = assay: Anticancer activity against human A-375 cells measured at 24 hrs under hypoxic condition; assay type: functional, cell-based

SMILES: CC1=C(Br)C(C)=[N+]2C1=C(c1ccccc1)c1c(C)c(Br)c(/C=C/c3ccc(OCc4ccc(/N=N/c5ccc(N(CCCl)CCCl)cc5)cc4)cc3)n1[B-]2(F)F
- Activity (A-375 [1]): >80%
- Activity (A-375 [2]): Active
- viability at 6 µM (A-375 [3]): 71.7%
- Retention_time [4]: 1.422 min
- IC50 (A-375 [5]): > 16 µM
- Activity (A-375 [6]): Active
- Activity (A-375 [7]): 13.664%
- viability at 4 µM (A-375 [8]): 94.8%
- Activity (A-375 [9]): 7.534%
- Activity (A-375 [10]): Active
- Activity (A-375 [11]): Active
- Activity (A-375 [12]): 0.809%
- Activity (A-375 [13]): 15.404%
- viability at 2 µM (A-375 [14]): 96.3%
- Activity (A-375 [15]): 0.247%
- Activity (A-375 [16]): 1.274%
- Stability [17]: Stable
- Activity (A-375 [18]): 2.806%
- Activity (A-375 [19]): 4.467%
- Activity (A-375 [20]): 0.975%
- Activity (A-375 [21]): 3.098%
- Ratio IC50 [22]: 11.02
- Stability [23]: Stable
- viability at 100 µM (A-375 [24]): ~50%
- viability at 4 h, 100 µM [25]: > 90%
- Activity [26]: Active
- Activity (A-375 [27]): 1.832%
- Activity (A-375 [28]): 0.185%
- inhibition in vivo at 2900 µg/mL (A-375 [29]): 92%
- Activity (A-375 [30]): Active
- viability at 6 µM (A-375 [31]): 93.6%
- Activity (A-375 [32]): 0.147%
- Activity (A-375 [33]): 0.058%
- viability at 4 µM (A-375 [34]): 85.5%
- Activity (A-375 [35]): 1.663%
- Activity (A-375 [36]): 6.769%
- IC50 (A-375 [37]): 4.18 µM
- IC50 (A-375 [38]): 1.35 µM
- viability at 2 µM (A-375 [39]): 92.7%
- Activity (A-375 [40]): 3.285%
- IC50 (A-375 [41]): > 100 µM
- Activity (A-375 [42]): 12.663%

SMILES: CC1=C(Br)C(C)=[N+]2C1=C(c1ccccc1)c1c(C)c(Br)c(/C=C/c3ccc(O)cc3)n1[B-]2(F)F
- Activity (A-375 [1]): >80%
- Activity [43]: Non-toxic
- Activity (A-375 [2]): Active
- Retention_time [4]: 3.5 min
- IC50 (A-375 [5]): > 16 µM
- Activity (A-375 [6]): Active
- Activity (A-375 [10]): Active
- Activity (A-375 [11]): Active
- Stability [17]: Stable
- Ratio IC50 [22]: 309.63
- Stability [23]: Stable
- viability at 100 µM (A-375 [24]): ~50%
- viability at 4 h, 100 µM [25]: > 90%
- Activity (A-375 [44]): Active
- Activity [26]: Active
- inhibition in vivo at 2900 µg/mL (A-375 [29]): 71%
- Activity (A-375 [30]): Active
- Activity (A-375 [45]): Active
- IC50 (A-375 [37]): 0.77 µM
- IC50 (A-375 [38]): 6.99 µM
- Activity [46]: Non-toxic
- IC50 (A-375 [41]): > 100 µM
- Activity (A-375 [47]): Active

From ChEMBL document CHEMBL6096722, “A Hypoxia-Activated BODIPY-Azo Anticancer Prodrug for Bimodal Chemo-Photodynamic Therapy” (J Med Chem, 2025)
